Experiments:
Assay type in all cases: cell-based
[1] = tested on: Escherichia coli; test: in vitro antibacterial screening, minimal inhibitory concentration, Escherichia coli; conditions: Escherichia coli (1 strain); Tryptic Soy broth; free base equivalent
Description: (§1) Aminotrideoxybutirosin A and its acid-addition salts posses antibacterial activity. They show activity when tested by well-recognized in vitro antibacterial screening procedures. […] Where more than a single strain of test organism is indicated an average or approximate minimal inhibitory concentration is given.

[2] = tested on: Pseudomonas aeruginosa Aquilar; test: in vitro antibacterial screening, minimal inhibitory concentration, Pseudomonas aeruginosa Aquilar (butirosin resistant strain); conditions: Pseudomonas aeruginosa Aquilar (1 strain), Tryptic Soy broth, free base equivalent
Description: as §1
(§2) *Butirosin resistant strain

[3] = tested on: Enterobacter cloacae; test: in vitro antibacterial screening, minimal inhibitory concentration, Enterobacter cloacae; conditions: Enterobacter cloacae (1 strain); Tryptic Soy broth; free base equivalent
Description: as §1

[4] = tested on: Staphylococcus aureus; test: in vitro antibacterial screening, minimal inhibitory concentration, Staphylococcus aureus (butirosin resistant strain); conditions: Staphylococcus aureus (1 strain), Tryptic Soy broth, free base equivalent
Description: as §1, §2

[5] = tested on: Pseudomonas aeruginosa; test: in vitro antibacterial screening, minimal inhibitory concentration, Pseudomonas aeruginosa; conditions: Pseudomonas aeruginosa (6 strains), average or approximate; Tryptic Soy broth; free base equivalent
Description: as §1

[6] = tested on: Klebsiella pneumoniae; test: in vitro antibacterial screening, minimal inhibitory concentration, Klebsiella pneumoniae; conditions: Klebsiella pneumoniae (1 strain); Tryptic Soy broth; free base equivalent
Description: as §1

[7] = tested on: Serratia marcescens; test: in vitro antibacterial screening, minimal inhibitory concentration, Serratia marcescens; conditions: Serratia marcescens (1 strain); Tryptic Soy broth; free base equivalent
Description: as §1

Compound | Minimal Inhibitory Concentration [1] [micrograms/ml] | Minimal Inhibitory Concentration [2] [micrograms/ml] | Minimal Inhibitory Concentration [3] [micrograms/ml] | Minimal Inhibitory Concentration [4] [micrograms/ml] | Minimal Inhibitory Concentration [5] [micrograms/ml] | Minimal Inhibitory Concentration [6] [micrograms/ml] | Minimal Inhibitory Concentration [7] [micrograms/ml] | MIC [1] [µg/mL] | MIC [2] [µg/mL] | MIC [3] [µg/mL] | MIC [4] [µg/mL] | MIC [5] [µg/mL] | MIC [6] [µg/mL] | MIC [7] [µg/mL]
Butirosin | > 200 | > 200 | 6.3 | 50 | 19.8 | 6.3 | 25 |  |  |  |  |  |  | 
NCC[C@H](O)C(=O)N[C@@H]1C[C@H](N)[C@@H](O[C@H]2O[C@H](CN)CC[C@H]2N)[C@H](O[C@@H]2O[C@H](CN)[C@H](O)[C@H]2O)[C@H]1O [Aminotrideoxybutirosin A, O-2,6-Diamino-2,3,4,6-tetradeoxy-α-D-erythro-hexopyranosyl-(1→4)-O-[5-amino-5-deoxy-β-D-xylofuranosyl-(1→5)]-N^1-[(S)-4-amino-2-hydroxy-1-oxobutyl]-2-deoxystreptamine] |  |  |  |  |  |  |  | 12.5 | 6.3 | 6.3 | 3.1 | 3.6 | 6.3 | 12.5

— patent US3960837A, “Polyamine compounds and methods for their production” (Parke, Davis & Company, priority 1974, dated 1976)
